Active and inactive are the calls of the source. The calls are words filed in the database; no cut-off is given here.

Assay [1] deals with HEK293T. As to the kind of experiment: Disruption of human CB1R-nYFP-5HT2AR-cYFP heterodimerization co-transfected in HEK293T cells assessed as decrease in fluorescence signal at 4 uM incubated for 4 hrs by BiFC assay. It is filed as cell-based.
Assay [2] deals with HEK-293T. As to the kind of experiment: Upregulation of ERK1/2 phosphorylation in forskolin-treated HEK293T cells transfected with CB1R-nYFP-5HT2AR-cYFP pretreated with DOI/WIN by cAMP based HTRF assay. Particulars: Homo sapiens. It is filed as functional, cell-based.
The subject of assay [3] is HEK-293T. Nature of the assay: Upregulation of ERK1/2 phosphorylation in forskolin-treated HEK293T cells transfected with CB1R-nYFP-5HT2AR-cYFP pretreated with DOI/RIM by cAMP based HTRF assay. It is filed as functional, cell-based. To be noted: Homo sapiens. Background: Time-resolved FRET reads energy transfer from a long-lived donor to a nearby acceptor.
For assay [4], the system named is HEK-293T. As to the kind of experiment: Upregulation of ERK1/2 phosphorylation in forskolin-treated HEK293T cells transfected with CB1R-nYFP-5HT2AR-cYFP pretreated with WIN/MDL by cAMP based HTRF assay. Particulars: Homo sapiens. The format is functional, cell-based.
Assay [5] concerns HEK-293T. Nature of the assay: Effect on G-protein coupling of 5HT2AR in forskolin-treated HEK293T cells transfected with CB1R-nYFP-5HT2AR-cYFP pretreated with WIN by cAMP based HTRF assay. The format is functional, cell-based. To be noted: Homo sapiens.
Assay [6] has as its system HEK-293T. As to the kind of experiment: Effect on ERK1/2 phosphorylation in forskolin-treated HEK293T cells transfected with CB1R-nYFP-5HT2AR-cYFP pretreated with DOI by cAMP based HTRF assay. To be noted: Homo sapiens. The format is functional, cell-based.
Assay [7] has as its system HEK-293T. As to the kind of experiment: Effect on G-protein coupling of 5HT2AR in forskolin-treated HEK293T cells transfected with CB1R-nYFP-5HT2AR-cYFP assessed as decrease in cAMP level pretreated with DOI/WIN by HTRF assay. It is filed as functional, cell-based. Particulars: Homo sapiens. For orientation: cAMP levels reflect the balance of adenylyl cyclase and phosphodiesterase activity.

Assay [8] deals with Cannabinoid receptor 1 (Homo sapiens) (UniProt P21554). As to the kind of experiment: Binding affinity to human CB1R-nYFP-CB1R-cYFP homodimerization co-transfected in HEK293T cells at 4 uM incubated for 4 hrs by BiFC assay. The format is cell-based.
Cannabinoid receptor 1 (Homo sapiens), sequence (P21554 whole entry): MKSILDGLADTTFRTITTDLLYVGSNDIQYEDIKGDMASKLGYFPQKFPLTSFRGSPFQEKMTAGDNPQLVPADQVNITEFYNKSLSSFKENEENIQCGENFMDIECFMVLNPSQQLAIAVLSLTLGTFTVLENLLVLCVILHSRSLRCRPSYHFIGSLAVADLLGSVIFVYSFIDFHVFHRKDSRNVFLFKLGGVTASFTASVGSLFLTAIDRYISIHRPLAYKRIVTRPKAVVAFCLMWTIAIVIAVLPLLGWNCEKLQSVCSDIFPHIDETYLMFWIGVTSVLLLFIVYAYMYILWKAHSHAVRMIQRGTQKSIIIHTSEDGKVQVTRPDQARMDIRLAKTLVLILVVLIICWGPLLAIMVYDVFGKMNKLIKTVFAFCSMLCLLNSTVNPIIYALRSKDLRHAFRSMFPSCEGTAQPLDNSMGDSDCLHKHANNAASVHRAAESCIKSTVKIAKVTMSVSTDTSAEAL
In assay [9] the test system is HEK-293T. Nature of the assay: Effect on G-protein coupling of 5HT2AR in forskolin-treated HEK293T cells transfected with CB1R-nYFP-5HT2AR-cYFP pretreated with DOI by cAMP based HTRF assay. It is filed as functional, cell-based. To be noted: Homo sapiens.
In assay [10] the target is 5-hydroxytryptamine receptor 2A (Homo sapiens) (UniProt P28223). Nature of the assay: Binding affinity to human 5HT2AR-nYFP-5HT2AR-cYFP homodimerization co-transfected in HEK293T cells at 4 uM incubated for 4 hrs by BiFC assay. It is filed as cell-based.
5-hydroxytryptamine receptor 2A (Homo sapiens), sequence (P28223 whole entry): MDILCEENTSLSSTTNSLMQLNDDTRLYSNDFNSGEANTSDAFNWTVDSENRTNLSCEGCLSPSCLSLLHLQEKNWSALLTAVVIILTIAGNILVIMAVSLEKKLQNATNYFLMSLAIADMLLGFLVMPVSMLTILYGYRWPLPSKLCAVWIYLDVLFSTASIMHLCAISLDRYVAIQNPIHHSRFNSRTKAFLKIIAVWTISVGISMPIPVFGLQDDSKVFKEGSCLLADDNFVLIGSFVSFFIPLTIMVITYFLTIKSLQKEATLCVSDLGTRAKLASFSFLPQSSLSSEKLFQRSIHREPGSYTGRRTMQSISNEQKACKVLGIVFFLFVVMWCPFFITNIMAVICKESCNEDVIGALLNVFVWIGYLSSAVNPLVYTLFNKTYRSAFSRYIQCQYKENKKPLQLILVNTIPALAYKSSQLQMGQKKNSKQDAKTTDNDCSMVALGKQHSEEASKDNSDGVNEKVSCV
The test system of assay [11] is HEK-293T. Nature of the assay: Effect on G-protein coupling of 5HT2AR in forskolin-treated HEK293T cells transfected with CB1R-nYFP-5HT2AR-cYFP assessed as decrease in cAMP level pretreated with DOI/RIM by HTRF assay. The format is functional, cell-based. Particulars: Homo sapiens.
Assay [12] deals with HEK-293T. As to the kind of experiment: Effect on G-protein coupling of 5HT2AR in forskolin-treated HEK293T cells transfected with CB1R-nYFP-5HT2AR-cYFP assessed as decrease in cAMP level pretreated with WIN/MDL by HTRF assay. It is filed as functional, cell-based. Particulars: Homo sapiens.

For the compound `CC(C)COCC(NC(=O)c1cccnc1)c1ccco1` (stereo not given), the result in assay [1] was Active.

Turning to `CCC(CC)C(=O)N(Cc1ccccc1)Cc1ccccc1`, the result in [2], in [3], in assay [4], in assay [7], in assay [10] and in [11] was Active. Also, the outcome in [1] and in [12] was Active. In addition, the Activity result in assay [5], in assay [6] and in [9] was “No effect” each time. In addition, in [8], the result was inactive.

`C=CCNC(=O)c1cn(-c2ccccc2)nc1-c1cccs1`: the outcome in [8] was Active. For the same compound, the result in assay [10] was inactive.

As to `CC(C)CNC(=O)c1oc2ccccc2c1COc1ccccc1`, the outcome in [2], in assay [3], in assay [4], in assay [7], in [10] and in [11] was Active. Further, the result in assay [1] and in assay [12] was Active. For the same compound, the Activity result in [5], in [6] and in assay [9] was “No effect” in each case. Besides, the outcome in [8] was inactive.

Regarding `CC(C)COc1nc(-c2ccccc2)cc(-c2ccccc2)c1C#N`, the result in [1] was Active.

Consider `CC(C)NC(=O)Cn1ccc2ccc(OCc3ccccc3)cc21`, for which the outcome in assay [2], in [3], in assay [4], in [7], in assay [10] and in assay [11] was Active. The result in assay [1] and in [12] was Active. Besides, the Activity result in [5], in [6] and in assay [9] was “No effect” throughout. In addition, in [8], the result was inactive.

The values above are taken from ChEMBL document CHEMBL6087470, “Design of Small Non-Peptidic Ligands That Alter Heteromerization between Cannabinoid CB1 and Serotonin 5HT2A Receptors” (J Med Chem, 2025).
